Several values for one entry are separate records, joined by “and”; a condition that tells them apart may be missing. Identical values can stand only once. Like-named read-outs stand apart in the source and are kept apart here. *1 amine or outer side, *2 acyl side, *3 side chain or, on linkers, in order; H or OH if unused. Where a SMILES comes first, the peptide text is derived from it. Where no end group is shown, it is not given here. [ ]: non-standard residue; d: D form. The star is where a group is joined. DOTA = O=C(O)CN1CCN(CC(=O)O)CCN(CC(=O)*)CCN(CC(=O)O)CC1; NH(CH2CH2O)4CH2CO = O=C(COCCOCCOCCOCCN[*:1])[*:2]; βAla = NCCC(=O)O
Key:
[1] = Octanol-water partition coefficient (log P), shake-flask; conditions: n-octanol/PBS, pH 7.4
Protocol: (§3) The octanol-water partition coefficients for radiotracers were determined via the assessment of their distribution in n-octanol and PBS (pH 7.4) using shake-flask method as described previously [48]. Radioactivity of each layer was measured using auto well gamma counter (n = 4).

[2] = In vitro stability in murine plasma; conditions: 37 °C
Protocol: (§4) Briefly, the solution of radiotracers (37 kBq/well, 50 µL) in a sealed tube containing 0.1 M PBS pH 7.4 (450 µL) was incubated at 37 °C for 24 h. At 3 and 24 h after incubation, the purity of radiotracers was analyzed by RP-HPLC. Meanwhile, for stability assay in murine plasma, radiotracers were mixed in murine plasma at a ratio of 1:10. After incubation at 37 °C for 10 min and 1 h, an equivalent amount of ice-cold acetonitrile was added. After centrifugation at 1000× g at 4 °C for 10 min, the supernatant was filtered through a 0.45-µm filter followed by analyzing using RP-HPLC as described above. Then, the radiochemical purities were determined.

[3] = In vitro stability in PBS pH 7.4; conditions: 37 °C, 0.1 M PBS pH 7.4
Protocol: as §4

[4] = system: PDGFRβ; conditions: cited from earlier work
[5] = mouse, 1 h
Protocol: as §4

[6] = in vitro; conditions: mouse, plasma, In vitro stability in murine plasma, percentage of remained intact radiotracer
Protocol: as §4

[7] = buffer
Protocol: as §4

[8] = physchem; conditions: pH 7.4
Protocol: as §3

[9] = Biodistribution in BxPC3-luc tumor-bearing mice; assay type: in vivo; conditions: female, BALB/c nu/nu, mouse, stomach, iv, 74 kBq, total radioactivity; 1 h post-injection
[10] = Biodistribution in BxPC3-luc tumor-bearing mice; assay type: in vivo, BALB/c nu/nu mice; conditions: female, BALB/c nu/nu, mouse, iv, 74 kBq, total radioactivity, 1 h post-injection; for tissue uptake at 1 h: i.v.
Protocol: (§1) All animal handling procedures were approved by the Kanazawa University Animal Care Committee. Experiments with animals were conducted in accordance with the Guidelines for the Care and Use of Laboratory Animals of Kanazawa University. The animals were housed with free access to food and water at 23 °C with a 12 h light/dark schedule. Four-week-old female BALB/c nu/nu mice (12–17 g) were purchased from Japan SLC Inc. (Hamamatsu, Japan). The tumor-bearing model was prepared by subcutaneous inoculation of 1 × 10^7 BxPC3-luc cells into left shoulder of female BALB/c nu/nu mice. The biodistribution experiment was performed approximately 4–5 weeks post-inoculation.
(§2) A saline solution of [^67Ga]27 or [^67Ga]28 (74 kBq, 100 µL) was injected intravenously into the tail vein of the mice. The mice were sacrificed at 10 min post-injection for [^67Ga]27 and 1 h post-injection for [^67Ga]27 or [^67Ga]28. For in vivo blocking studies, 100 μL of a mixed saline solution of [^67Ga]27 (74 kBq) and IPLPPPRRPFFK peptide (1 mg/mouse) was injected via tile vein into the tumor-bearing mice. The mice were sacrificed at 1 h post-injection. Tissues of interest were removed and weighed. The radioactivity of the tissues was determined using an auto well gamma counter, and counts were corrected for background radiation and physical decay during counting. The data were expressed as percent injected dose per gram tissue (%ID/g).

[11] = system: BxPC3-luc tumor-bearing mice; assay: Biodistribution in BxPC3-luc tumor-bearing mice; assay type: in vivo, BALB/c nu/nu mice; conditions: 1 h post-injection, i.v.
Protocol: as §1, §2

[12] = mouse, plasma, In vitro stability in murine plasma, percentage of remained intact radiotracer, 1 h

With `CC[C@H](C)[C@H](NC(=O)[C@@H](C)NC(=O)[C@@H](C)NC(=O)[C@@H](C)NC(=O)[C@@H](C)NC(=O)[C@@H](C)NC(=O)CN1CCN(CC(=O)O)CCN(CC(=O)O)CCN(CC(=O)O)CC1)C(=O)N1CCC[C@H]1C(=O)N[C@@H](CC(C)C)C(=O)N1CCC[C@H]1C(=O)N1CCC[C@H]1C(=O)N1CCC[C@H]1C(=O)N[C@@H](CCCNC(=N)N)C(=O)N[C@@H](CCCNC(=N)N)C(=O)N1CCC[C@H]1C(=O)N[C@@H](Cc1ccccc1)C(=O)N[C@@H](Cc1ccccc1)C(=O)N[C@@H](CCCCN)C(=O)O` [[^67Ga]24, [^67Ga]Ga-DOTA-aaaaa-IPLPPPRRPFFK, metal not drawn] ({DOTA}-[dA][dA][dA][dA][dA]IPLPPPRRPFFK-OH) the logP [1] was under -4, the remaining at 1 h [2, 12] was 41.4 ± 2.5% and the “In vitro stability in PBS pH 7.4, percentage of remained intact radiotracer” value ([3]; 3 h) was 96.3 ± 1.1%. For the same compound, the “In vitro stability in PBS pH 7.4, percentage of remained intact radiotracer” value ([3]; 24 h) was 94.0 ± 0.5%.
For “yIPLPPPRRPFFK ([dY]IPLPPPRRPFFK) [yG2, … with tyrosine at the N-terminal for radioiodination]”, the “Affinity for the PDGFRβ relative to IPLPPPSRPFFKY (PDGFR-P1)” value ([4]; higher affinity) is listed as 16 times.
In the case of `CC[C@H](C)[C@H](NC(=O)CCNC(=O)CCNC(=O)CN1CCN(CC(=O)O)CCN(CC(=O)O)CCN(CC(=O)O)CC1)C(=O)N1CCC[C@H]1C(=O)N[C@@H](CC(C)C)C(=O)N1CCC[C@H]1C(=O)N1CCC[C@H]1C(=O)N1CCC[C@H]1C(=O)N[C@@H](CCCNC(=N)N)C(=O)N[C@@H](CCCNC(=N)N)C(=O)N1CCC[C@H]1C(=O)N[C@@H](Cc1ccccc1)C(=O)N[C@@H](Cc1ccccc1)C(=O)N[C@@H](CCCCN)C(=O)O` [[^67Ga]25, [^67Ga]Ga-DOTA-ββ-IPLPPPRRPFFK, metal not drawn] ({DOTA-βAla-βAla}-IPLPPPRRPFFK-OH), the logP [1] is reported as under -4, the remaining at 1 h [2, 12] is reported as 26.2 ± 6.7% and the “In vitro stability in PBS pH 7.4, percentage of remained intact radiotracer” value ([3]; 3 h) is reported as 94.2 ± 1.7%. The “In vitro stability in PBS pH 7.4, percentage of remained intact radiotracer” value ([3]; 24 h) was 93.0 ± 0.4%.
In the case of “IPLPPPSRPFFK [PDGFR-P1, linear dodecapeptide targeting PDGFRβ identified by biopanning]”, the IC50 ([4]; targeting PDGFRβ) is given as 1400 nM.
For `CC[C@H](C)[C@H](NC(=O)CCNC(=O)CCNC(=O)CCNC(=O)CCNC(=O)CN1CCN(CC(=O)O)CCN(CC(=O)O)CCN(CC(=O)O)CC1)C(=O)N1CCC[C@H]1C(=O)N[C@@H](CC(C)C)C(=O)N1CCC[C@H]1C(=O)N1CCC[C@H]1C(=O)N1CCC[C@H]1C(=O)N[C@@H](CCCNC(=N)N)C(=O)N[C@@H](CCCNC(=N)N)C(=O)N1CCC[C@H]1C(=O)N[C@@H](Cc1ccccc1)C(=O)N[C@@H](Cc1ccccc1)C(=O)N[C@@H](CCCCN)C(=O)O` [[^67Ga]26, [^67Ga]Ga-DOTA-ββββ-IPLPPPRRPFFK, metal not drawn] ({DOTA-βAla-βAla-βAla-βAla}-IPLPPPRRPFFK-OH), the logP [1] was under -4, the remaining at 1 h [2, 12] was 33.1 ± 5.7% and the “In vitro stability in PBS pH 7.4, percentage of remained intact radiotracer” value ([3]; 3 h) was 96.9 ± 0.3%. The “In vitro stability in PBS pH 7.4, percentage of remained intact radiotracer” value ([3]; 24 h) was 95.4 ± 0.2%.
With `CC[C@H](C)[C@H](NC(=O)CN1CCN(CC(=O)O)CCN(CC(=O)O)CCN(CC(=O)O)CC1)C(=O)N1CCC[C@H]1C(=O)N[C@@H](CC(C)C)C(=O)N1CCC[C@H]1C(=O)N1CCC[C@H]1C(=O)N1CCC[C@H]1C(=O)N[C@@H](CCCNC(=N)N)C(=O)N[C@@H](CCCNC(=N)N)C(=O)N1CCC[C@H]1C(=O)N[C@@H](Cc1ccccc1)C(=O)N[C@@H](Cc1ccccc1)C(=O)N[C@@H](CCCCN)C(=O)O` [[^67Ga]22, [^67Ga]Ga-DOTA-IPLPPPRRPFFK, metal not drawn] ({DOTA}-IPLPPPRRPFFK-OH) the “In vitro stability in murine plasma, percentage of remained intact radiotracer” value [5] was 35.2 ± 1.7%, the remaining at 1 h [6] was 35% and the “In vitro stability in PBS pH 7.4, percentage of remained intact radiotracer” value ([7]; 3 h) was 95.3 ± 2.7%. The “In vitro stability in PBS pH 7.4, percentage of remained intact radiotracer” value ([7]; 24 h) was 94.1 ± 0.6% and the logP [8] was under -4.
With `CC[C@H](C)[C@H](NC(=O)COCCOCCOCCOCCNC(=O)CN1CCN(CC(=O)O)CCN(CC(=O)O)CCN(CC(=O)O)CC1)C(=O)N1CCC[C@H]1C(=O)N[C@@H](CC(C)C)C(=O)N1CCC[C@H]1C(=O)N1CCC[C@H]1C(=O)N1CCC[C@H]1C(=O)N[C@@H](CCCNC(=N)N)C(=O)N[C@@H](CCCNC(=N)N)C(=O)N1CCC[C@H]1C(=O)N[C@@H](Cc1ccccc1)C(=O)N[C@@H](Cc1ccccc1)C(=O)N[C@@H](CCCCN)C(=O)O` [[^67Ga]28, [^67Ga]Ga-DOTA-EG4-IPLPPPRRPFFK, metal not drawn] ({DOTA}-[NH(CH2CH2O)4CH2CO]IPLPPPRRPFFK-OH) the logP [1] was under -4, the “In vitro stability in murine plasma, percentage of remained intact radiotracer” value ([2]; 1 h, 60 min) was 80.1 ± 0.8% and the remaining at 10 min ([2]; mouse, plasma, In vitro stability in murine plasma, percentage of remained intact radiotracer, 10 min) was 96.2 ± 1.1%. The remaining at 1 h [2, 12] was over 75%, the tissue uptake dose at 1 h [9] was 0.01 %ID and the tissue uptake at 1 h ([10]; blood, read-out: Biodistribution, Blood) was 0.12 %ID/g. It also gave a tissue uptake at 1 h ([10]; bone, read-out: Biodistribution, Bone) of 0.1 %ID/g, a tissue uptake at 1 h ([10]; heart, read-out: Biodistribution, Heart) of 0.03 %ID/g and a tissue uptake at 1 h ([10]; BxPC3-luc tumor, read-out: Biodistribution, Tumor) of 0.25 %ID/g. It also gave a tissue uptake at 1 h ([10]; kidney, read-out: Biodistribution, Kidney) of 2.96 %ID/g, a tissue uptake at 1 h ([10]; large intestine, read-out: Biodistribution, Large intestine) of 0.11 %ID/g and a tissue uptake at 1 h ([10]; liver, read-out: Biodistribution, Liver) of 0.2 %ID/g. The tissue uptake at 1 h ([10]; lung, read-out: Biodistribution, Lung) was 0.18 %ID/g, the tissue uptake at 1 h ([10]; muscle, read-out: Biodistribution, Muscle) was 0.03 %ID/g and the tissue uptake at 1 h ([10]; pancreas, read-out: Biodistribution, Pancreas) was 0.07 %ID/g. It also gave a tissue uptake at 1 h ([10]; small intestine, read-out: Biodistribution, Small intestine) of 0.34 %ID/g, a tissue uptake at 1 h ([10]; spleen, read-out: Biodistribution, Spleen) of 0.07 %ID/g and a tissue to tissue ratio at 1 h ([10]; tumor/blood) of 2.05. The “Biodistribution, Brain” value [11] was 0.00 (0.00) %injected dose/gram tissue, the Tumor/Blood ratio [11] was 2.05 and 2.05 ± 0.77 and the “In vitro stability in PBS pH 7.4, percentage of remained intact radiotracer” value ([3]; 3 h) was 96.9 ± 0.2%. The “In vitro stability in PBS pH 7.4, percentage of remained intact radiotracer” value ([3]; 24 h) was 94.3 ± 0.3%.
In the case of `CC[C@H](C)[C@H](NC(=O)[C@@H](C)NC(=O)[C@@H](C)NC(=O)[C@@H](C)NC(=O)CN1CCN(CC(=O)O)CCN(CC(=O)O)CCN(CC(=O)O)CC1)C(=O)N1CCC[C@H]1C(=O)N[C@@H](CC(C)C)C(=O)N1CCC[C@H]1C(=O)N1CCC[C@H]1C(=O)N1CCC[C@H]1C(=O)N[C@@H](CCCNC(=N)N)C(=O)N[C@@H](CCCNC(=N)N)C(=O)N1CCC[C@H]1C(=O)N[C@@H](Cc1ccccc1)C(=O)N[C@@H](Cc1ccccc1)C(=O)N[C@@H](CCCCN)C(=O)O` [[^67Ga]23, [^67Ga]Ga-DOTA-aaa-IPLPPPRRPFFK, metal not drawn] ({DOTA}-[dA][dA][dA]IPLPPPRRPFFK-OH), the logP [1] is reported as under -4, the remaining at 1 h [2, 12] is reported as 15.7 ± 2.9% and the “In vitro stability in PBS pH 7.4, percentage of remained intact radiotracer” value ([3]; 3 h) is reported as 95.9 ± 0.7%. For the same compound, the “In vitro stability in PBS pH 7.4, percentage of remained intact radiotracer” value ([3]; 24 h) was 94.0 ± 0.5%.
For IPLPPPRRPFFK, the IC50 ([4]; affinity for PDGFRβ) is given as 480 nM.
